Test results from PubChem BioAssay (NCI).
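Growth conditions: 96-well plates. Treatment: test compound, 48 hours, 5 concentrations. Analysis: linear interpolation between bracketing concentrations; unreached endpoints set to highest concentration. At the TGI there is no net growth.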

What follows are molecules tested on 786-0 renal (assay: inhibition of tumour cell growth, NCI panel, 48 h).
For `C=CCOC(C)n1c(C)cc(=O)n(C(C)OCC=C)c1=O` (stereo unspecified), the TGI was over 100 µM. Molecule `O=C(c1ccccc1)N1CCN2CCN=C(c3ccccc3)C21c1ccccc1` (stereo unspecified) has a TGI of over 100 µM. `CCCCCCCCCCCCCCCC/C(C(=O)OC)=C(/O)C(=O)OCC` was tested, and the TGI was over 100 µM. `Nc1nc(-c2ccco2)cc(-c2ccco2)n1` was tested, and the TGI was over 100 µM.

What follows are molecules tested on A498 renal (assay: inhibition of tumour cell growth, NCI panel, 48 h).
`C=CCOC(C)n1c(C)cc(=O)n(C(C)OCC=C)c1=O` (stereo unspecified) showed a TGI of over 100 µM. Molecule `O=C(c1ccccc1)N1CCN2CCN=C(c3ccccc3)C21c1ccccc1` (stereo unspecified) has a TGI of over 100 µM. `CCCCCCCCCCCCCCCC/C(C(=O)OC)=C(/O)C(=O)OCC` gave a TGI of over 100 µM.

These molecules were tested on A549 NSCLC (assay: inhibition of tumour cell growth, NCI panel, 48 h).
`C=CCOC(C)n1c(C)cc(=O)n(C(C)OCC=C)c1=O` (stereo unspecified) was tested, and the TGI was over 100 µM. `O=C(c1ccccc1)N1CCN2CCN=C(c3ccccc3)C21c1ccccc1` (stereo unspecified) gave a TGI of over 100 µM. Work on `CCCCCCCCCCCCCCCC/C(C(=O)OC)=C(/O)C(=O)OCC` yielded a TGI of over 100 µM. Work on `Nc1nc(-c2ccco2)cc(-c2ccco2)n1` yielded a TGI of over 100 µM.

These molecules were tested on ACHN renal (assay: inhibition of tumour cell growth, NCI panel, 48 h).
For `C=CCOC(C)n1c(C)cc(=O)n(C(C)OCC=C)c1=O` (stereo unspecified), the TGI was over 100 µM. `O=C(c1ccccc1)N1CCN2CCN=C(c3ccccc3)C21c1ccccc1` (stereo unspecified) showed a TGI of over 100 µM. `CCCCCCCCCCCCCCCC/C(C(=O)OC)=C(/O)C(=O)OCC` was tested, and the TGI was over 100 µM. For `Nc1nc(-c2ccco2)cc(-c2ccco2)n1`, the TGI was over 100 µM.

The molecules below were run on CAKI-1 renal (assay: inhibition of tumour cell growth, NCI panel, 48 h).
With `CCCCCCCCCCCCCCCC/C(C(=O)OC)=C(/O)C(=O)OCC` the TGI was over 100 µM.

What follows are molecules tested on CCRF-CEM leukemia (assay: inhibition of tumour cell growth, NCI panel, 48 h).
For `C=CCOC(C)n1c(C)cc(=O)n(C(C)OCC=C)c1=O` (stereo unspecified), the TGI was over 100 µM. In the case of `O=C(c1ccccc1)N1CCN2CCN=C(c3ccccc3)C21c1ccccc1` (stereo unspecified), the TGI is reported as over 100 µM. `CCCCCCCCCCCCCCCC/C(C(=O)OC)=C(/O)C(=O)OCC` gave a TGI of over 100 µM. `Nc1nc(-c2ccco2)cc(-c2ccco2)n1` gave a TGI of over 100 µM.

What follows are molecules tested on COLO 205 colon (assay: inhibition of tumour cell growth, NCI panel, 48 h).
`C=CCOC(C)n1c(C)cc(=O)n(C(C)OCC=C)c1=O` (stereo unspecified) was tested, and the TGI was over 100 µM. Molecule `O=C(c1ccccc1)N1CCN2CCN=C(c3ccccc3)C21c1ccccc1` (stereo unspecified) has a TGI of over 100 µM. Molecule `CCCCCCCCCCCCCCCC/C(C(=O)OC)=C(/O)C(=O)OCC` has a TGI of over 100 µM. Molecule `Nc1nc(-c2ccco2)cc(-c2ccco2)n1` has a TGI of over 100 µM.

What follows are molecules tested on DLD-1 colon (assay: inhibition of tumour cell growth, NCI panel, 48 h).
`C=CCOC(C)n1c(C)cc(=O)n(C(C)OCC=C)c1=O` (stereo unspecified) was tested, and the TGI was over 100 µM. With `O=C(c1ccccc1)N1CCN2CCN=C(c3ccccc3)C21c1ccccc1` (stereo unspecified) the TGI was over 100 µM. `CCCCCCCCCCCCCCCC/C(C(=O)OC)=C(/O)C(=O)OCC` showed a TGI of over 100 µM.

The molecules below were run on DMS 114 small cell lung (assay: inhibition of tumour cell growth, NCI panel, 48 h).
`C=CCOC(C)n1c(C)cc(=O)n(C(C)OCC=C)c1=O` (stereo unspecified) gave a TGI of over 100 µM. `O=C(c1ccccc1)N1CCN2CCN=C(c3ccccc3)C21c1ccccc1` (stereo unspecified) showed a TGI of over 100 µM. With `CCCCCCCCCCCCCCCC/C(C(=O)OC)=C(/O)C(=O)OCC` the TGI was over 100 µM. `Nc1nc(-c2ccco2)cc(-c2ccco2)n1` showed a TGI of over 100 µM.

Each molecule was assayed on DMS 273 small cell lung (assay: inhibition of tumour cell growth, NCI panel, 48 h).
`C=CCOC(C)n1c(C)cc(=O)n(C(C)OCC=C)c1=O` (stereo unspecified) gave a TGI of over 100 µM. Molecule `O=C(c1ccccc1)N1CCN2CCN=C(c3ccccc3)C21c1ccccc1` (stereo unspecified) has a TGI of over 100 µM. With `CCCCCCCCCCCCCCCC/C(C(=O)OC)=C(/O)C(=O)OCC` the TGI was over 100 µM. With `Nc1nc(-c2ccco2)cc(-c2ccco2)n1` the TGI was over 100 µM.

The molecules below were run on EKVX NSCLC (assay: inhibition of tumour cell growth, NCI panel, 48 h).
In the case of `C=CCOC(C)n1c(C)cc(=O)n(C(C)OCC=C)c1=O` (stereo unspecified), the TGI is reported as over 100 µM. In the case of `O=C(c1ccccc1)N1CCN2CCN=C(c3ccccc3)C21c1ccccc1` (stereo unspecified), the TGI is reported as over 100 µM. Molecule `Nc1nc(-c2ccco2)cc(-c2ccco2)n1` has a TGI of over 100 µM.

What follows are molecules tested on HCC-2998 colon (assay: inhibition of tumour cell growth, NCI panel, 48 h).
`C=CCOC(C)n1c(C)cc(=O)n(C(C)OCC=C)c1=O` (stereo unspecified) was tested, and the TGI was over 100 µM. Work on `O=C(c1ccccc1)N1CCN2CCN=C(c3ccccc3)C21c1ccccc1` (stereo unspecified) yielded a TGI of over 100 µM. `CCCCCCCCCCCCCCCC/C(C(=O)OC)=C(/O)C(=O)OCC` showed a TGI of over 100 µM.

What follows are molecules tested on HCT-116 colon (assay: inhibition of tumour cell growth, NCI panel, 48 h).
For `C=CCOC(C)n1c(C)cc(=O)n(C(C)OCC=C)c1=O` (stereo unspecified), the TGI was over 100 µM. `O=C(c1ccccc1)N1CCN2CCN=C(c3ccccc3)C21c1ccccc1` (stereo unspecified) showed a TGI of over 100 µM. Molecule `CCCCCCCCCCCCCCCC/C(C(=O)OC)=C(/O)C(=O)OCC` has a TGI of over 100 µM. `Nc1nc(-c2ccco2)cc(-c2ccco2)n1` gave a TGI of over 100 µM.

Each molecule was assayed on HCT-15 colon (assay: inhibition of tumour cell growth, NCI panel, 48 h).
Work on `C=CCOC(C)n1c(C)cc(=O)n(C(C)OCC=C)c1=O` (stereo unspecified) yielded a TGI of over 100 µM. In the case of `CCCCCCCCCCCCCCCC/C(C(=O)OC)=C(/O)C(=O)OCC`, the TGI is reported as over 100 µM. Molecule `Nc1nc(-c2ccco2)cc(-c2ccco2)n1` has a TGI of over 100 µM.

These molecules were tested on HL-60(TB) leukemia (assay: inhibition of tumour cell growth, NCI panel, 48 h).
`C=CCOC(C)n1c(C)cc(=O)n(C(C)OCC=C)c1=O` (stereo unspecified) was tested, and the TGI was over 100 µM. `O=C(c1ccccc1)N1CCN2CCN=C(c3ccccc3)C21c1ccccc1` (stereo unspecified) was tested, and the TGI was over 100 µM. `CCCCCCCCCCCCCCCC/C(C(=O)OC)=C(/O)C(=O)OCC` gave a TGI of over 100 µM.
